Data published in publication PMC7216583 (Parasites & Vectors, 2020).
Read-outs that look alike come from different tables or passages of the source.

Key:
[1] = test system: NaV1.8 channel; design: method as in S-inhibitor catalog; details: vendor brief description; ref S-inhibitor catalog; cited from earlier work
[2] = test system: Toxoplasma gondii RH-2F tachyzoites; assay: microbe, parasite or virus in culture; details: 72 h
[3] = test system: NAMPT; details: read-out: IC50, NAMPT; vendor brief description; ref S-inhibitor catalog; cited from earlier work
[4] = target: XIAP; design: method as in S-inhibitor catalog; details: vendor brief description; ref S-inhibitor catalog; cited from earlier work
[5] = target: cIAP1; design: method as in S-inhibitor catalog; details: vendor brief description; ref S-inhibitor catalog; cited from earlier work
[6] = target: cIAP2; design: method as in S-inhibitor catalog; details: vendor brief description; ref S-inhibitor catalog; cited from earlier work
[7] = test system: HER1; design: method as in library vendor description; details: ref library vendor description; cited from earlier work
[8] = test system: HER2; design: method as in library vendor description; details: ref library vendor description; cited from earlier work
[9] = test system: CHO-rSGLT2; design: method as in S-inhibitor catalog; details: vendor brief description; ref S-inhibitor catalog; cited from earlier work
[10] = test system: CHO-hSGLT2; design: method as in S-inhibitor catalog; details: vendor brief description; ref S-inhibitor catalog; cited from earlier work
[11] = test system: CHO-mSGLT2; design: method as in S-inhibitor catalog; details: vendor brief description; ref S-inhibitor catalog; cited from earlier work
[12] = test system: Cathepsin B; design: method as in vendor brief description; details: ref vendor brief description; cited from earlier work
[13] = test system: Cathepsin S; design: method as in vendor brief description; details: ref vendor brief description; cited from earlier work
[14] = test system: Cathepsin L2; design: method as in vendor brief description; details: ref vendor brief description; cited from earlier work
[15] = test system: Cathepsin K; design: method as in vendor brief description; details: ref vendor brief description; cited from earlier work
[16] = test system: Cathepsin L; design: method as in vendor brief description; details: ref vendor brief description; cited from earlier work
[17] = test system: B-RafV600E; design: method as in vendor brief description; details: ref vendor brief description; cited from earlier work
[18] = test system: B-Raf; design: method as in vendor brief description; details: ref vendor brief description; cited from earlier work
[19] = test system: c-Raf; design: method as in vendor brief description; details: ref vendor brief description; cited from earlier work
[20] = test system: rhCETP; design: method as in S-inhibitor catalog; details: vendor brief description; ref S-inhibitor catalog; cited from earlier work
[21] = test system: PKCα; design: method as in library vendor description; details: ref library vendor description; cited from earlier work
[22] = test system: PKCε; design: method as in library vendor description; details: ref library vendor description; cited from earlier work
[23] = test system: PKCγ; design: method as in library vendor description; details: ref library vendor description; cited from earlier work
[24] = test system: PKCβ; design: method as in library vendor description; details: ref library vendor description; cited from earlier work
[25] = test system: Akt3; design: method as in vendor brief description; details: ref vendor brief description; cited from earlier work
[26] = test system: Akt1; design: method as in vendor brief description; details: ref vendor brief description; cited from earlier work
[27] = test system: FAAH; design: method as in vendor brief description; details: human; ref vendor brief description; cited from earlier work
[28] = test system: FAAH; design: method as in vendor brief description; details: rat; ref vendor brief description; cited from earlier work
[29] = target: FPTase (H-ras); design: method as in S-inhibitor catalog; details: vendor brief description; ref S-inhibitor catalog; cited from earlier work
[30] = target: FPTase (K-ras-4B); design: method as in S-inhibitor catalog; details: vendor brief description; ref S-inhibitor catalog; cited from earlier work
[31] = target: FPTase (N-ras); design: method as in S-inhibitor catalog; details: vendor brief description; ref S-inhibitor catalog; cited from earlier work
[32] = read-out: Parasite inhibition (%) mean, preliminary screen of compound library, mean
[33] = read-out: Parasite inhibition (%) mean, preliminary screen, mean

Compound: COc1cc(NC(=O)c2ccc(-c3ccc(Cl)cc3)o2)cc(OC)c1 [A-803467]
- IC50 [1]: 8 nM
- inhibition of growth at 5 µM [2, 32]: 0.3%

Compound: O=C(/C=C/c1cccnc1)NCCCCC1CCN(C(=O)c2ccccc2)CC1 [APO866 (FK866)]
- inhibition of growth at 5 µM [2, 32]: 10.4%

Compound: CN[C@@H](C)C(=O)N[C@H]1CN(C(=O)CC(C)C)CC[C@H]2CC[C@@H](C(=O)NC(c3ccccc3)c3ccccc3)N2C1=O [AT-406]
- Ki [4]: 66.4 nM
- inhibition of growth at 5 µM [2, 32]: 33.5%
- Ki [5]: 1.9 nM
- Ki [6]: 5.1 nM

Compound: Cc1c(NC(=O)OC[C@@H]2COCCN2)cn2ncnc(Nc3ccc4c(cnn4Cc4cccc(F)c4)c3)c12 [BMS-599626 (AC480)]
- IC50 [7]: 20 nM
- IC50 [8]: 30 nM
- inhibition of growth at 5 µM [2, 33]: 39.6%

Compound: Cc1ccc([C@@H]2O[C@H](CO)[C@@H](O)[C@H](O)[C@H]2O)cc1Cc1ccc(-c2ccc(F)cc2)s1 [Canagliflozin]
- IC50 [9]: 3.7 nM
- inhibition of growth at 5 µM [2, 32]: 0.5%
- IC50 [10]: 4.4 nM
- IC50 [11]: 2 nM

Compound: Cn1nc(C(C)(C)C)cc1C(=O)N[C@@H](Cc1cccc(Cl)c1)C(=O)NCC#N [Cathepsin Inhibitor 1]
- pIC50 Cathepsin B [12]: 5.2
- pIC50 Cathepsin S [13]: 6.0
- pIC50 Cathepsin L2 [14]: 6.7
- pIC50 Cathepsin K [15]: 5.5
- inhibition of growth at 5 µM [2, 32]: 21.5%
- pIC50 Cathepsin L [16]: 7.9

Compound: CC(C)(C)c1nc(-c2cccc(NS(=O)(=O)c3c(F)cccc3F)c2F)c(-c2ccnc(N)n2)s1 [Dabrafenib (GSK2118436)]
- inhibition of growth at 5 µM [2, 32]: 0.8%
- IC50 [19]: 5 nM

Compound: CCC(CC)CC1(C(=O)Nc2ccccc2SC(=O)C(C)C)CCCCC1 [Dalcetrapib (JTT-705)]
- inhibition of growth at 5 µM [2, 32]: 0.4%
- IC50 [20]: 200 nM

Compound: Cn1cc(C2=C(c3cn(C4CCN(Cc5ccccn5)CC4)c4ccccc34)C(=O)NC2=O)c2ccccc21 [Enzastaurin (LY317615)]
- inhibition of growth at 5 µM [2, 33]: 11.4%
- IC50 [24]: 6 nM

Compound: CC(C)NC[C@@H](C(=O)N1CCN(c2ncnc3c2[C@H](C)C[C@H]3O)CC1)c1ccc(Cl)cc1 [GDC-0068]
- inhibition of growth at 5 µM [2, 32]: 35.4%

Compound: O=C(Nc1ccccc1)N1CCN(c2nc(-c3ccccc3)ns2)CC1 [JNJ 1661010]
- inhibition of growth at 5 µM [2, 32]: 10.5%
- IC50 [27]: 12 nM
- IC50 [28]: 10 nM

Compound: NC(=O)N1CCC(CC(=O)N2CCC([C@H]3c4ncc(Br)cc4CCc4cc(Cl)cc(Br)c43)CC2)CC1 [Lonafarnib (SCH66336)]
- IC50 [29]: 1.9 nM
- IC50 [30]: 5.2 nM
- inhibition of growth at 5 µM [2, 32]: 0.4%
- IC50 [31]: 2.8 nM
